# Measured values as given in patent US20210308089A1, “METHODS OF TREATING AND/OR PREVENTING VIRAL INFECTIONS AND/OR DISEASES CAUSED BY VIRUSES IN A SUBJECT IN NEED THEREOF” (priority 2020, published 2021).
# Test system: patients of the REDUCE-IT and earlier EPA placebo-controlled trials
# Assay: Example 3: adverse events by risk ratio, icosapent ethyl vs placebo (candidate categories; infectious disease terms of interest)
# Details: for NNT / Risk Ratio (95% CI) / ARR: ISS
# [1] = Frequent Bowel Movements, Any Severity
# [2] = Frequent Bowel Movements, Mild Severity
# [3] = Frequent Bowel Movements, Related
# [4] = Huntington's Chorea, Any Severity
# [5] = Huntington's Chorea, Mild Severity
# [6] = ITT, AMR101 N = 4089, placebo 8 of 4090
# [7] = ITT, AMR101 N = 4089, placebo 10 of 4090
# [8] = ITT, AMR101 N = 4089, placebo 22 of 4090
structure (smiles),measurement,setting,value
"CC/C=C\C/C=C\C/C=C\C/C=C\C/C=C\CCCC(=O)OCC [icosapent ethyl, eicosapentaenoic acid ethyl ester]",NNT,"Flatulence, Mild Severity",129
same,Risk Ratio (95% CI),"Flatulence, Mild Severity",0.424 (0.125 to 1.440) 3
same,ARR,"Flatulence, Related",−0.8%
same,NNT,"Flatulence, Related",121
same,Risk Ratio (95% CI),"Flatulence, Related",0.463 (0.152 to 1.408) 3
same,ARR,[1],−0.6%
same,NNT,[1],173
same,Risk Ratio (95% CI),"Frequent Bowel Movements, Any Severity, case counts given",[0 drug vs 3 PBO]
same,ARR,[2],−0.4%
same,NNT,[2],259
same,Risk Ratio (95% CI),"Frequent Bowel Movements, Mild Severity, case counts given",[0 drug vs 2 PBO]
same,ARR,[3],−0.6%
same,NNT,[3],173
same,Risk Ratio (95% CI),"Frequent Bowel Movements, Related, case counts given",[0 drug vs 3 PBO]
same,ARR,Hot Flush,−0.3%
same,NNT,Hot Flush,292
same,Risk Ratio (95% CI),Hot Flush,0.556 (0.125 to 2.474) 3
same,ARR,[4],−1.3%
same,NNT,[4],77
same,Risk Ratio (95% CI),[4],0.247 (0.067 to 0.908) 4
same,ARR,[5],−0.9%
same,NNT,[5],109
same,Risk Ratio (95% CI),[5],0.318 (0.083 to 1.223)4
same,ARR,Menorrhagia,−0.6%
same,NNT,Menorrhagia,159
same,Risk Ratio (95% CI),Menorrhagia,0.185 (0.021 to 1.653) 5
same,ARR,"Muscle spasms, Related",−0.0%
same,NNT,"Muscle spasms, Related",2007
same,Risk Ratio (95% CI),"Muscle spasms, Related",0.741 (0.046 to 11.826) 2
same,ARR,"Nasopharyngitis, Any Severity",−2.3%
same,NNT,"Nasopharyngitis, Any Severity",43
same,Risk Ratio (95% CI),"Nasopharyngitis, Any Severity",0.588 (0.344 to 1.004) 3
same,ARR,"Nasopharyngitis, Mild Severity",−2.3%
same,NNT,"Nasopharyngitis, Mild Severity",43
same,Risk Ratio (95% CI),"Nasopharyngitis, Mild Severity",0.494 (0.265 to 0.921) 3
same,ARR,"Weight loss, Related",−0.4%
same,NNT,"Weight loss, Related",230
same,Risk Ratio (95% CI),"Weight loss, Related",0.247 (0.026 to 2.369) 4
same,Bronchiectasis TEAE: % of subjects,"ITT, AMR101 N = 4089, placebo 0.1, Fisher's Exact p 0.5076",(0.1) %
same,Hepatosplenomegaly TEAE: % of subjects,"ITT, AMR101 N = 4089, placebo 0.1, Fisher's Exact p 0.6249",(0.0) %
same,Allergic sinusitis TEAE: % of subjects,"ITT, AMR101 N = 4089, placebo 0.1, Fisher's Exact p 0.6874",(0.0) %
same,Mucosal inflammation TEAE: % of subjects,"ITT, AMR101 N = 4089, placebo 0.1, Fisher's Exact p 0.7264",(0.1) %
same,Systemic inflammatory response syndrome TEAE: % of subjects,"ITT, AMR101 N = 4089, placebo 0.2, Fisher's Exact p 0.1092",(0.0) %
same,Splenomegaly TEAE: % of subjects,"ITT, AMR101 N = 4089, placebo 0.2, Fisher's Exact p 0.1792",(0.1) %
same,Neutropenia TEAE: % of subjects,"ITT, AMR101 N = 4089, placebo 0.2, Fisher's Exact p 0.2262",(0.1) %
same,Gingivitis TEAE: % of subjects,"ITT, AMR101 N = 4089, placebo 0.2, Fisher's Exact p 0.3013",(0.1) %
same,Orthopnea TEAE: % of subjects,"ITT, AMR101 N = 4089, placebo 0.2, Fisher's Exact p 0.3873",(0.1) %
same,Helicobacter infection TEAE: % of subjects,"ITT, AMR101 N = 4089, placebo 0.2, Fisher's Exact p 0.4235",(0.1) %
same,Herpes simplex TEAE: % of subjects,"ITT, AMR101 N = 4089, placebo 0.2, Fisher's Exact p 0.5807",(0.1) %
same,Vulvovaginal mycotic infection TEAE: % of subjects,"ITT, AMR101 N = 4089, placebo 0.3, Fisher's Exact p 0.2097",(0.1) %
same,Bronchitis chronic TEAE: % of subjects,"ITT, AMR101 N = 4089, placebo 0.3, Fisher's Exact p 0.5029",(0.2) %
same,Hepatobiliary disorders (SOC) TEAE: % of subjects,"ITT, AMR101 N = 4089, placebo 0.5, Fisher's Exact p 0.0037",(0.1) %
same,Hepatomegaly TEAE: % of subjects,"ITT, AMR101 N = 4089, placebo 0.5, Fisher's Exact p 0.0065",(0.1) %
same,Atelectasis TEAE: % of subjects,"ITT, AMR101 N = 4089, placebo 0.5, Fisher's Exact p 0.0795",(0.3) %
same,Emphysema TEAE: % of subjects,"ITT, AMR101 N = 4089, placebo 0.5, Fisher's Exact p 0.2144",(0.3) %
same,Rhinitis TEAE: % of subjects,"ITT, AMR101 N = 4089, placebo 0.5, Fisher's Exact p 0.4166",(0.4) %
same,Tooth infection TEAE: % of subjects,"ITT, AMR101 N = 4089, placebo 0.7, Fisher's Exact p 0.2514",(0.5) %
same,Influenza like illness TEAE: % of subjects,"ITT, AMR101 N = 4089, placebo 0.7, Fisher's Exact p 0.6709",(0.6) %
same,Thrombocytopenia TEAE: % of subjects,"ITT, AMR101 N = 4089, placebo 0.8, Fisher's Exact p 0.3393",(0.6) %
same,Wheezing TEAE: % of subjects,"ITT, AMR101 N = 4089, placebo 0.9, Fisher's Exact p 0.1162",(0.6) %
same,General disorders and administration site conditions (SOC) TEAE: % of subjects,"ITT, AMR101 N = 4089, placebo 1.0, Fisher's Exact p 0.1800",(0.7) %
same,Sepsis TEAE: % of subjects,"ITT, AMR101 N = 4089, placebo 1.0, Fisher's Exact p 0.3535",(0.8) %
same,Blood and lymphatic system disorders (SOC) TEAE: % of subjects,"ITT, AMR101 N = 4089, placebo 1.2, Fisher's Exact p 0.0279",(0.7) %
same,Hepatosplenomegaly TEAE: number of subjects,"ITT, AMR101 N = 4089, placebo 3 of 4090",1
same,Allergic sinusitis TEAE: number of subjects,"ITT, AMR101 N = 4089, placebo 4 of 4090",2
same,Mucosal inflammation TEAE: number of subjects,"ITT, AMR101 N = 4089, placebo 5 of 4090",3
same,Cough TEAE: % of subjects,"ITT, AMR101 N = 4089, placebo 5.9, Fisher's Exact p 1.0000",(5.9) %
same,Bronchiectasis TEAE: number of subjects,"ITT, AMR101 N = 4089, placebo 6 of 4090",3
same,Influenza TEAE: % of subjects,"ITT, AMR101 N = 4089, placebo 6.6, Fisher's Exact p 0.7541",(6.4) %
same,Pneumonia TEAE: % of subjects,"ITT, AMR101 N = 4089, placebo 6.8, Fisher's Exact p 0.5627",(6.4) %
same,"Respiratory, thoracic and mediastinal disorders (SOC) TEAE: % of subjects","ITT, AMR101 N = 4089, placebo 7.8, Fisher's Exact p 0.2050",(7.0) %
same,Herpes simplex TEAE: number of subjects,[6],5
same,Neutropenia TEAE: number of subjects,[6],3
same,Orthopnea TEAE: number of subjects,[6],4
same,Systemic inflammatory response syndrome TEAE: number of subjects,[6],2
same,Helicobacter infection TEAE: number of subjects,"ITT, AMR101 N = 4089, placebo 9 of 4090",5
same,Gingivitis TEAE: number of subjects,[7],5
same,Splenomegaly TEAE: number of subjects,[7],4
same,Vulvovaginal mycotic infection TEAE: number of subjects,"ITT, AMR101 N = 4089, placebo 11 of 4090",5
same,Bronchitis chronic TEAE: number of subjects,"ITT, AMR101 N = 4089, placebo 12 of 4090",8
same,Infections and infestations (SOC) TEAE: % of subjects,"ITT, AMR101 N = 4089, placebo 14.6, Fisher's Exact p 0.2676",(13.8) %
same,Hepatomegaly TEAE: number of subjects,"ITT, AMR101 N = 4089, placebo 19 of 4090",5
same,Emphysema TEAE: number of subjects,"ITT, AMR101 N = 4089, placebo 20 of 4090",12
same,Subjects with at least one Infectious Disease TEAE of Interest: % of subjects,"ITT, AMR101 N = 4089, placebo 21.6, Fisher's Exact p 0.0562",(19.9) %
same,Atelectasis TEAE: number of subjects,[8],11
same,Hepatobiliary disorders (SOC) TEAE: number of subjects,[8],6
same,Rhinitis TEAE: number of subjects,[8],16
same,Influenza like illness TEAE: number of subjects,"ITT, AMR101 N = 4089, placebo 27 of 4090",23
same,Tooth infection TEAE: number of subjects,"ITT, AMR101 N = 4089, placebo 29 of 4090",20
same,Thrombocytopenia TEAE: number of subjects,"ITT, AMR101 N = 4089, placebo 31 of 4090",23
same,Wheezing TEAE: number of subjects,"ITT, AMR101 N = 4089, placebo 36 of 4090",23
same,General disorders and administration site conditions (SOC) TEAE: number of subjects,"ITT, AMR101 N = 4089, placebo 40 of 4090",28
same,Sepsis TEAE: number of subjects,"ITT, AMR101 N = 4089, placebo 42 of 4090",33
same,Blood and lymphatic system disorders (SOC) TEAE: number of subjects,"ITT, AMR101 N = 4089, placebo 48 of 4090",28
same,Subjects with at least one Infectious Disease Events of Interest (TEAE terms and labs): % of subjects,"ITT, AMR101 N = 4089, placebo 86.8, Fisher's Exact p <.0001",(83.0) %
same,Cough TEAE: number of subjects,"ITT, AMR101 N = 4089, placebo 241 of 4090",241
same,Influenza TEAE: number of subjects,"ITT, AMR101 N = 4089, placebo 271 of 4090",263
same,Pneumonia TEAE: number of subjects,"ITT, AMR101 N = 4089, placebo 277 of 4090",263
same,"Respiratory, thoracic and mediastinal disorders (SOC) TEAE: number of subjects","ITT, AMR101 N = 4089, placebo 318 of 4090",287
same,Infections and infestations (SOC) TEAE: number of subjects,"ITT, AMR101 N = 4089, placebo 599 of 4090",563
same,Subjects with at least one Infectious Disease TEAE of Interest: number of subjects,"ITT, AMR101 N = 4089, placebo 883 of 4090",812
same,Subjects with at least one Infectious Disease Events of Interest (TEAE terms and labs): number of subjects,"ITT, AMR101 N = 4089, placebo 3549 of 4090",3394
same,AR: ADHD (AE table),R-I,0.0%
same,AR: Allergic sinusitis (AE table),R-I,0.1%
same,AR: Alzheimer's Disease (AE table),R-I,0.1%
same,AR: Asthma (AE table),R-I,1.3%
same,AR: Atelectasis (AE table),R-I,0.4%
